From US20160368872A1, “COMPOUNDS AND METHODS FOR TREATING CANCERS” (HEALTH RESEARCH, INC., priority 2013, published 2016)
One block for each compound: values may come before it.

How the values were obtained:
androgen receptor = assay: AR level in cells with inhibited p53 activity; type: cell-based; conditions: MCF7 cells with functionally inactive p53 (R175H, GSE56)
Text: Also tested was the hypothesis that degradation of androgen receptor in prostate and breast cancer cells may be due to p53 induced accumulation of mdm2, which is also ubiquitin ligase for androgen receptor (FIG. 15). p53 was inactivated in several cell lines using different approaches what led to the blockade of mdm2 accumulation after c52 treatment. However androgen receptor was still degraded in c52 treated cells even in the absence of p53 activation and mdm2 accumulation (FIG. 16).

CWR22R = assay: inhibition of growth of cell lines (IC50 categories); type: cell-based; conditions: Homo sapiens, 22Rv1
Description: (§1) This example provides a table (below) of the compounds of the present disclosure and their activity towards four different cell lines (i.e., CWR22R, Hela, PC3, and MDA-MB-231). The IC50 for inhibition of growth is divided into 4 categories: A<1 μM, B 1-5 μM, […], D>20 μM.
(§2) All compounds were tested for toxicity using 4 cells lines, target cells-CWR22R and non-target cells, Hela, PC3 and MDA-MB-231 (FIGS. 1A-F).

PC3 = assay: as above; type: cell-based; conditions: Homo sapiens, PC-3
Description: as §1, §2

MDA-MB-231 = assay: as above; type: cell-based; conditions: Homo sapiens
Description: as §1, §2

Hela = assay: as above; type: cell-based; conditions: Homo sapiens
Description: as §1, §2

CWR22R cells [1] = assay: toxicity of PLA1055 to CWR22R cells depending on time of incubation (LC90, Alamar Blue); type: cell-based; conditions: incubation 4-8 hours; survival detected at 72 hours
Description: FIG. 21. Toxicity of PLA1055 to CWR22R cells in vitro depending on time of incubation. PLA1055 was added to CWR22R in full range of concentrations for the periods of time shown on the right. After that drug containing media were changed for drug free and survival of cells was detected at 72 hours after start of treatment using Alamar Blue assay (Promega).
An in vitro experiment was run to detect the concentration of PLA1055 needed to kill all tumor cells in vitro (LC90) during different periods of time (30 minutes-72 hours, FIG. 21)).

[2] = plasma concentration after intravenous and intraperitoneal injections (PK); type: in vivo; conditions: for bioavailability through IP injection: IP versus IV, doses 50-100 mg/kg; for course of plasma concentration: after intravenous and intraperitoneal injections, 50-100 mg/kg
CWR22R cells [3] = type: cell-based
Description: as §2
LC50 data of in vitro 72 hours cytotoxicity assay are included in this table for comparison.

[4] = tissue drug concentrations in mice bearing CWR22R tumors; type: in vivo, SCID mice
Description: (§3) We tested these compounds in an in vivo efficacy experiment using model of CRPC in SCID mice, CWR22R. Two compounds, PLA1079 and 1125, which were synthesized in the amount of 500 mg were tested in full scale experiment with either 5 IV daily injections or 10 IP daily injections. After 5 IP or IV injections intra-tumor concentration of the compounds were measured in few mice from this experiment.
Two other compounds, PLA1148 and 1098 (PK testing in FIGS. 8 and 9) were tested in a small scale efficacy experiment. Upon PK testing of the compound PLA1148 one mouse was injected twice with 10 min interval. However the concentration of the drug in plasma of this mouse was not twice, but >4 times higher than in mice injected once. […] It was decided to utilize this observation in an attempt to get higher plasma and tumor concentration of both compounds. Therefore in the pilot efficacy experiment in the same model of CWR22R cells mice were treated with 2 IP injections with 10 minute interval. Treatment with PLA1098 was carried out for two days. […] However this is so far the highest concentration found in tumor. […]

Caveolin1 = assay: expression of Caveolin1 in sensitive versus resistant cells; type: cell-based; conditions: MDA MB 231 and MCF7 cells
Text: FIG. 12. Expression of Caveolin1 in sensitive versus resistant cells. Caveolin1 is expressed in resistant MDA MB 231 cells, but not in sensitive MCF7 cells.

CWR22R tumors = assay: in vivo efficacy, subcutaneous xenografts of CWR22R cells in SCID mice
Description: as §3
(§4) Two other compounds, PLA1148 and 1098 (PK testing in FIGS. 8 and 9) were tested in a small scale efficacy experiment. Upon PK testing of the compound PLA1148 one mouse was injected twice with 10 min interval. However the concentration of the drug in plasma of this mouse was not twice, but >4 times higher than in mice injected once. […] It was decided to utilize this observation in an attempt to get higher plasma and tumor concentration of both compounds. Therefore in the pilot efficacy experiment in the same model of CWR22R cells mice were treated with 2 IP injections with 10 minute interval. Treatment with PLA1098 was carried out for two days. […] However this is so far the highest concentration found in tumor.
Pilot efficacy experiments were run for compounds: PLA1163, PLA1148 using the same model of subcutaneous xenografts of CWR22R cells in SCID mice (FIGS. 18 and 19).

[5] = toxicity observed in mice of the pilot efficacy experiments; type: in vivo
Description: as §4
This compound may be also potentially promising.

[6] = system: presumable target protein in protein lysates from sensitive CWR22r cells; assay: DARTS (Drug Affinity Responsive Target Stability) assay; conditions: treated vs untreated
Description: FIG. 24. DARTS (Drug Affinity Responsive Target Stability) assay was performed using c52 and PLA1118. According to this assay these compounds are capable of protecting presumable target protein from protease degradation. Protein lysates from sensitive CWR22r cells were incubated with or without the drug and subsequently digested with the indicated concentration of pronase. A. c52 was used (lane T-treated, M-marker) with indicated concentrations of pronase; ability of c52 to protect its target from protease cleavage was judged based on presence of protein band in the treated lane vs the untreated (UT) control.

[7] = solubility for in vivo administration; type: physicochemical
[8] = aqueous solubility (pH 7.4); type: physicochemical
[9] = metabolic stability in the presence of mouse liver microsomes; type: in vitro ADME
Description: 8 compounds were selected based on the solubility and metabolic stability as well as considering chemical diversity to test for time dependence stability in the presence of mouse […] (FIG. 2). […] Two compounds, PLA1190 and 1197, have desirable metabolic stability, 70 and 77% left after 30 minute incubation with mouse liver microsome respectively. Formulations for in vivo administration were developed for 4 compounds, PLA1079, 1125, 1098 and 1148.

[10] = 5 IV daily injections or 10 IP daily injections
[11] = 24 hours after last injection, 2 IP injections with 10 minute interval, two days
[12] = 2 IP injections with 10 minute interval, one day
[13] = one mouse at 24 hours after injections

Compound: CC(=O)c1ccc2c(c1)c1cc(C(C)=O)ccc1n2CCNC(C)C [CBL 137, reference compound]
AR level (androgen receptor): AR is being degraded

IC50 (PC3): > 20000 nM | IC50 (MDA-MB-231): > 20000 nM | IC50 (Hela): > 20000 nM
Compound: O=c1[nH]ccc2c1ccc1c2c2ncccc2n1CCC(F)F [Compound 15-1, 7-(3,3-Difluoropropyl)-3,7-dihydro-3,7,11-triaza-benzo[c]fluoren-4-one]
IC50 (CWR22R): > 20000 nM

Compound: CC(=O)c1ccc2c(c1)c1ccccc1n2CCCF [PLA1055]
LC90 (CWR22R cells [1]): 2500 nM | plasma concentration at 8 hours ([2]; 8 hours, single IV administration of 50 mg/kg (FIG. 20)): below 1 uM | time up to which compound was detected ([2]; single IV administration of 50 mg/kg (FIG. 20)): up to 24 hours | CC50 (CWR22R cells [3]): 40 nM

Compound: CCCn1c2ccccc2c2cc(-c3nnco3)ccc21 [PLA1079]
Tumor concentration ([4]; 100 mg/kg, IP/IV): 24 to 48 nM | levels of Caveolin1 expression (Caveolin1): did not change | bioavailability through IP injection [2]: very high bioavailability | course of plasma concentration [2]: fast reduction of concentration during the first hour | in vivo efficacy (CWR22R tumors; [10]): absence of in vivo efficacy | AR level (androgen receptor): AR is being degraded | CC50 (CWR22R cells [3]): 120 nM

Compound: CCCn1c2ccccc2c2c3c(ccc21)C(=O)N(C)C3 [PLA1098]
side effects during the treatment ([5]; 2 IP injections with 10 minute interval for two days): no signs of side effects were noticed | signs of toxicity ([5]; summary statement): without any signs of toxicity | Liver ([4]; 100 mg/kg, IP): 0 nM | Tumor concentration ([4]; 100 mg/kg, IP): 23 to 25 nM | Intratumor concentration ([4]; 2 tested tumors at 24 hours after last injection, 2 IP injections with 10 minute interval, two days): 25 nM | compound in liver [4, 11]: no detectable | compound in plasma [4, 11]: no detectable | bioavailability through IP injection [2]: very high bioavailability | course of plasma concentration [2]: fast reduction of concentration during the first hour | protection of target protein band from pronase degradation [6]: protected their targets from degradation | tumor volume and tumor weight vs vehicle control (CWR22R tumors; 2 IP injections with 10 minute interval for two days, tumors excised 12 days after treatment): certain reduction of tumor volume and tumor weigh in the 1098 treated group vs vehicle control, but not statistically significant | in vivo efficacy (CWR22R tumors; summary statement): evidence of in vivo efficacy | CC50 (CWR22R cells [3]): 40 nM

solubility [7]: poorly soluble
Compound: CCCn1c2ccccc2c2c3cc[nH]c(=O)c3ccc21 [PLA1099]

Compound: CCCn1c2ccccc2c2cc(S(C)(=O)=O)ccc21 [PLA1118]
protection of target protein band from pronase degradation [6]: faintly

solubility [7]: poorly soluble
Compound: O=c1[nH]ccc2c1ccc1c2c2ccccc2n1CCCF [PLA1121]

Compound: FCCCn1c2ccccc2c2cc(-c3nnco3)ccc21 [PLA1125]
Tumor concentration ([4]; 100 mg/kg, IP/IV): 7 to 10 nM | bioavailability through IP injection [2]: very high bioavailability | course of plasma concentration [2]: fast reduction of concentration during the first hour | in vivo efficacy (CWR22R tumors; [10]): absence of in vivo efficacy | CC50 (CWR22R cells [3]): 100 nM

Compound: O=C1NCCc2c1ccc1c2c2ncccc2n1CCCF [PLA1148]
deaths of mice [5, 12]: 2 mice died next day and 3 other during next 5 days | toxicity after injection [5, 12]: acute toxicity developed quickly after injection, symptoms suggested acute liver failure | Liver ([4]; 50 mg/kg, IP): 50 nM | Tumor concentration ([4]; 50 mg/kg, IP): 0 to 90 nM | Tumor concentration ([4]; 48 hours after treatment): 84 nM | liver concentration ([4]; 48 hours after treatment): 49 nM | plasma concentration ([4]; mice euthanized at 48 hours after treatment): The same plasma concentration | drug in liver [4, 13]: no drug detected | drug in tumor [4, 13]: no drug detected | plasma concentration [4, 13]: 8.5 nM | bioavailability through IP injection [2]: very high bioavailability | course of plasma concentration [2]: fast reduction of concentration during the first hour | concentration in plasma of mouse injected twice with 10 min interval versus mice injected once ([2]; one mouse injected twice): > 4 times | tumors of mice that died on the 5th day (CWR22R tumors; two mice, injected only one day): almost undetectable tumors

Compound: O=C1NCCOc2c1ccc1c2c2ccccc2n1CCCF [PLA1163]
Liver ([4]; 40 mg/kg, IP): 307 nM | Tumor concentration ([4]; 40 mg/kg, IP): 4 to 10 nM | solubility [7]: poorly soluble | CC50 (CWR22R cells [3]): 200 nM

Aqueous Solubility Classification [8]: Low
Compound: O=c1[nH]ccc2c1ccc1c2c2ncccc2n1CCCF [PLA1181]

left after 30 minute incubation with mouse liver microsome [9]: 70% | Aqueous Solubility Classification [8]: Low | Aqueous Solubility (pH 7.4) [8]: 3.5 μM
Compound: O=c1[nH]c2ccc3c(c4ccccc4n3CCCF)c2o1 [PLA1190]

Aqueous Solubility Classification [8]: High | Aqueous Solubility (pH 7.4) [8]: 130 μM
Compound: CC(=O)c1ccc2c(c1)c1c(C(N)=O)cccc1n2CCCF [PLA1191]

Compound: O=c1c2ccc3c(c2ccn1CCO)c1ccccc1n3CCCF [PLA1192]
Aqueous Solubility Classification [8]: Moderate | Aqueous Solubility (pH 7.4) [8]: 15 μM

Aqueous Solubility Classification [8]: High | Aqueous Solubility (pH 7.4) [8]: 140 μM
Compound: O=c1c2ccc3c(c2ccn1CCN1CCCC1)c1ccccc1n3CCCF [PLA1193]

Compound: CN1Cc2c(ccc3c2c2ccccc2n3CCC(F)F)C1=O [PLA1194]
Aqueous Solubility Classification [8]: Moderate | Aqueous Solubility (pH 7.4) [8]: 18 μM

Aqueous Solubility Classification [8]: Low | Aqueous Solubility (pH 7.4) [8]: 2.7 μM
Compound: N#Cc1cccc2c1c1c3cc[nH]c(=O)c3ccc1n2CCCF [PLA1195]

Compound: NC(=O)c1cccc2c1c1c3cc[nH]c(=O)c3ccc1n2CCCF [PLA1196]
Aqueous Solubility Classification [8]: Moderate | Aqueous Solubility (pH 7.4) [8]: 26 μM

left after 30 minute incubation with mouse liver microsome [9]: 77% | Aqueous Solubility Classification [8]: Low | Aqueous Solubility (pH 7.4) [8]: 4.0 μM
Compound: O=C1CCc2c1ccc1c2c2c(F)cccc2n1CCCF [PLA1197]

Aqueous Solubility Classification [8]: Low | Aqueous Solubility (pH 7.4) [8]: 2.5 μM
Compound: CC(=O)c1ccc2c(c1)c1c3c(ccc1n2CCCF)C(=O)CC3 [PLA1198]

Aqueous Solubility Classification [8]: Low | Aqueous Solubility (pH 7.4) [8]: 2.3 μM
Compound: O=C1CCc2c1ccc1c2c2cc(Br)ccc2n1CCCF [PLA1199]
